{
  "source": "patent US20200368371A1",
  "about": "“DYE-PROTEIN COMPLEX FOR NIR II AND PHOTOACOUSTIC IMAGING” (The Board of Trustees of the Leland Stanford Junior …, priority 2019, published 2020)",
  "key": {"[1]": {"assay": "Fluorescence intensity at different concentrations of IR-820 in deionized water and PBS", "assay_type": "physicochemical", "description": "IR-820 was first dissolved in deionized water, and then added to deionized water or PBS to determine the optimal concentration. […] 10 μM was determined as the concentration for other studies. […] Different HSA: IR-820 ratios were prepared while keeping IR-820 at a constant 10 μM to determine the approximate binding stoichiometry."}, "[2]": {"assay": "Absorbance spectra in deionized water", "assay_type": "physicochemical", "details": "DI water", "excerpt": "Absorbance spectra of IR-820 and complexes were taken on an ultraviolet-visible-NIR Cary 60 spectrometer (Agilent Technologies) with background correction."}, "[3]": {"test_system": "C57BL/6 mice", "assay": "In vivo NIR-II imaging of lymphatic system", "description": "A gentle massage was performed on the injection site for faster diffusion into the lymphatic system.\nBefore imaging, all mice were anesthetized in a rodent anesthesia machine with 2 L/min O^2 gas mixed with 3% Soflurane. C57BL/6 mice were used for the vascular and lymphatic system NIR-II imaging. […] A gentle massage was performed at the injection site to increase the speed of diffusion into the lymphatic system. […] All groups within the study contained n=3 mice.\nAll NIR-II images were collected on a two-dimensional InGaAs array NIR-II system (Princeton Instruments). The excitation was provided by an 808 nm diode laser through an optical fiber and collimator. Fluorescence emission was collected with 1000 nm or more than 1000 nm long-pass filters (Thorlabs). A lens set was used to obtain tunable magnifications ranging from 1× (whole body) to 2.5× (high magnification) by changing the relative position of two NIR achromats (75 mm and 200 mm, Thorlabs). Image J software were used for analyzing the images.\nThe fluorescence measurement was performed to quantify NIR-II fluorescence signal intensity through the Image J software (National Institutes of Health, Bethesda, Md.). The line graphs and Gaussian-fitted FWHM were analysis by origin 8.5 (OriginLab Corporation, Northampton, Mass.)."}, "[4]": {"details": "all light conditions; cited from earlier work"}, "[5]": {"details": "prone position, subcutaneous footpad injection"}},
  "data": [
    {"smiles": "CC1(C)C(=CC=C2CCCC(C=CC3=[N+](CCCCS(=O)(=O)[O-])c4ccc5ccccc5c4C3(C)C)=C2Cl)N(CCCCS(=O)(=O)[O-])c2ccc3ccccc3c21.[Na+]", "note": "[IR-820]", "values": [
      {"measurement": "behaviour in PBS", "setting": "[1]", "result": "poor solubility or severe quenching"},
      {"measurement": "absorbance strong peak", "setting": "[2]", "result": 690, "unit": "nm"},
      {"measurement": "absorbance weak shoulder", "setting": "[2]", "result": 815, "unit": "nm"},
      {"measurement": "identification of the inguinal lymph node", "setting": "[3]; left side, subcutaneous injection", "result": "failed"},
      {"measurement": "FWHM of lymphatic vessels", "setting": "[3]; [5]", "result": "unmeasurable"},
      {"measurement": "SBR of lymphatic vessels", "setting": "[3]; [5]", "result": 1.33},
      {"measurement": "stability in aqueous solution", "setting": "[4]", "result": "greater stability than ICG"}
    ]}
  ]
}
